These results are taken from patent publication US12264139B2, “Aryl sulfonamides as BLT1 antagonists” (Merck Sharp & Dohme LLC, priority 2015, dated 2025).

T1 sequence (Q15722 whole entry): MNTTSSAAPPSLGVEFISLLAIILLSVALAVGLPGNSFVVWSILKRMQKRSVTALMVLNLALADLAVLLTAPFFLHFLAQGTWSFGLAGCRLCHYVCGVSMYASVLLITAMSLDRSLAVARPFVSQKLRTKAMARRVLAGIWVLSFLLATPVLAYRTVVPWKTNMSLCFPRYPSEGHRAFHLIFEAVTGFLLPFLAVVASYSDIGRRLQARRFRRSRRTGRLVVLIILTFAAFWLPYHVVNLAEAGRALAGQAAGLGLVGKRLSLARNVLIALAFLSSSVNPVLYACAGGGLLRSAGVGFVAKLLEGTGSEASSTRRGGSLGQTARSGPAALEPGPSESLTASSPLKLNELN

This assay addresses T1, human BLT1 receptor (Homo sapiens, UniProt Q15722).
T1 construct: expressed in transfected cells; host or cells: HEK293
Description: BLT-1 cAMP Assay. Format: cell-based. The settings on record: HEK293 cells recombinantly expressing human BLT1; antagonist activity vs forskolin 4 μM and LTB4 2 nM; cAMP (CisBio kit). The procedure: The ability of compounds to antagonize the human BLT1 receptor was determined using a kit to measure changes in intracellular cyclic AMP levels (cAMP dynamic assay kit, Cisbio Cat. No. 62AM4PEC). […] The cell suspension was centrifuged at 200×g for 10 min and then resuspended in fresh assay medium to a density of 2.5×10^5 cells/mL. […] All subsequent liquid additions were performed using a BIORAPTR (FRD; Beckman Coulter). Next, 5 μL of cell suspension was added and incubated for 20 min. at 37° C. and 5% CO2 in a humidified plastic tray.
The levels of cAMP were detected using the CisBio kit following the manufacturer's instructions: cAMP-d2 vial was reconstituted with distilled water and then diluted accordingly with conjugate & lysis buffer. 5 µL of cAMP-d2 working solution was added to all of the wells of the assay plate. cAMP-Cryptate vial was reconstituted with distilled water and then diluted accordingly with conjugate & lysis buffer. 5 µL of cAMP-Cryptate working solution were added to the assay plate. The assay plate was shaken for 3 minutes and incubated at room temperature for 45 minutes, then read on Perkin Elmer Envision. cAMP standard curve and fit data were plotted using a 4 parameter dose response curve fitting algorithm to fit curve. […] After normalization to treated and untreated controls, the percent effect of signal at each compound concentration was calculated. The plot of percent effect versus the log of compound concentration was fit with a 4-parameter concentration response equation to calculate EC50 values.
By EC50 is commonly meant the midpoint of the concentration-response curve. As for `CC(C)(C)c1nc(C[C@@H]2COc3cc(-c4ccccc4NS(=O)(=O)C(F)(F)F)ccc3[C@H]2O)cs1` (relative stereo) [Example 45, N-(2-((3,4-trans)-3-((2-(tert-butyl)thiazol-4-yl)methyl)-4-hydroxychroman-7-yl)phenyl)-1,1,1-trifluoromethanesulfonamide], the EC50 came to 1430 nM.

On to `O=S(=O)(CC(F)(F)F)Nc1nccnc1-c1ccc2c(c1)OC[C@@H](Cc1ccccn1)[C@@H]2O` (single isomer, unassigned) [Example 76, 2,2,2-Trifluoro-N-(3-((3,4-trans)-4-hydroxy-3-(pyridin-2-ylmethyl)chroman-7-yl)pyrazin-2-yl)ethanesulfonamide], for which the EC50 is 1860 nM. In the case of `CC1(S(=O)(=O)Nc2ccccc2-c2ccc3c(c2)OCC(Cc2ccccn2)C3O)CC1` (single isomer, unassigned) [Example 75, N-(2-((3,4-trans)-4-hydroxy-3-(pyridin-2-ylmethyl)chroman-7-yl)phenyl)-1-methylcyclopropane-1-sulfonamide], the EC50 came out at 235 nM. Regarding `Cc1nc(C[C@H]2COc3cc(-c4ccccc4NS(=O)(=O)C(F)(F)F)ccc3[C@@H]2O)cs1` (single isomer, unassigned) [Example 57, 1,1,1-Trifluoro-N-(2-{(3S,4R or 3R,4S)-4-hydroxy-3-[(2-methyl-1,3-thiazol-4-yl)methyl]-3,4-dihydro-2H-chromen-7-yl}phenyl)-methanesulfonamide], the EC50 turned out to be 10 nM. Turning to `CC(c1ccccn1)C1COc2cc(-c3cc(F)ccc3NS(=O)(=O)C(F)(F)F)ccc2C1O` (stereo not shown) [Example 99, 1,1,1-trifluoro-N-(4-fluoro-2-(4-hydroxy-3-(1-(pyridin-2-yl)ethyl)chroman-7-yl)phenyl) methanesulfonamide], the EC50 worked out at 1 nM.

With `O=S(=O)(Nc1ccccc1-c1ccc2c(c1)OC[C@H](Cc1ncccc1F)[C@H]2O)C(F)(F)F` (racemic) [Example 19, 1,1,1-Trifluoro-N-(2-{(rac-trans)-3-[(3-fluoropyridin-2-yl)methyl]-4-hydroxy-3,4-dihydro-2H-chromen-7-yl}phenyl)methanesulfonamide], the EC50 worked out at 1600 nM. With `O=S(=O)(Nc1ccccc1-c1ccc2c(c1)OCC(Cc1cc[nH]n1)C2O)C(F)(F)F` (racemic) [Example 6, N-(2-((3,4-Rac-trans)-3-((1H-pyrazol-3-yl)methyl)-4-hydroxychroman-7-yl)phenyl)-1,1,1-trifluoromethanesulfonamide], the EC50 worked out at 240 nM.

Consider `O=S(=O)(Nc1nccnc1-c1ccc2c(c1)OCC(Cc1ccccn1)C2O)C(F)(F)F` (racemic) [Example 74, 1,1,1-Trifluoro-N-(3-((3,4-rac-trans)-4-hydroxy-3-(pyridin-2-ylmethyl)chroman-7-yl)pyrazin-2-yl)methanesulfonamide], for which the EC50 is 4050 nM. For `Cn1nc(-c2ccccc2)cc1C[C@@H]1COc2cc(-c3ccccc3NS(=O)(=O)C(F)(F)F)ccc2[C@H]1O` (single isomer, unassigned) [Example 37, 1,1,1-Trifluoro-N-(2-((3R,4S or 3S,4R)-4-hydroxy-3-((1-methyl-3-phenyl-1H-pyrazol-5-yl)methyl)chroman-7-yl)phenyl)methanesulfonamide], the EC50 amounted to 754 nM.

In the case of `O=S(=O)(Nc1ccccc1-c1ccc2c(c1)OC[C@@H](Cc1cc[nH]n1)[C@@H]2O)C(F)(F)F` (single isomer, unassigned) [Example 71, 1,1,1-trifluoro-N-{2-[(3,4-trans)-4-hydroxy-3-(1H-pyrazol-3-ylmethyl)-3,4-dihydro-2H-chromen-7-yl]phenyl}-methanesulfonamide], the half-maximal effective concentration (EC50) came out at 125 nM. Take `O=S(=O)(Nc1ccccc1-c1ccc2c(c1)OC[C@H](Cc1cnc(-c3ccccc3)s1)[C@H]2O)C(F)(F)F` (single isomer, unassigned) [Example 43, 1,1,1-Trifluoro-N-(2-((3R,4S or 3S,4R)-4-hydroxy-3-((2-phenylthiazol-5-yl)methyl)chroman-7-yl)phenyl)methanesulfonamide]: the EC50 amounted to 64 nM.

As to `Cc1nnc(C[C@@H]2COc3cc(-c4ccccc4NS(=O)(=O)C(F)(F)F)ccc3[C@H]2O)s1` (single isomer, unassigned) [Example 70, 1,1,1-Trifluoro-N-(2-{(3,4-trans)-4-hydroxy-3-[(5-methyl-1,3,4-thiadiazol-2-yl)methyl]-3,4-dihydro-2H-chromen-7-yl}phenyl)-methanesulfonamide], the EC50 stood at 261 nM.

In the case of `O=S(=O)(CC(F)(F)F)Nc1ncccc1-c1ccc2c(c1)OC[C@@H](Cc1ccccn1)[C@@H]2O` (single isomer, unassigned) [Example 78, 2,2,2-Trifluoro-N-(3-((3S,4R or 3R,4S)-4-hydroxy-3-(pyridin-2-ylmethyl)chroman-7-yl)pyridin-2-yl)ethanesulfonamide], the EC50 amounted to 1870 nM.

With `O=S(=O)(Nc1ccccc1-c1ccc2c(c1)OC[C@H](Cc1cn(-c3ccccc3)nn1)[C@H]2O)C(F)(F)F` (racemic) [Example 14, 1,1,1-Trifluoro-N-(2-{(rac-trans)-4-hydroxy-3-[(1-phenyl-1H-1,2,3-triazol-4-yl)methyl]-3,4-dihydro-2H-chromen-7-yl}phenyl)methanesulfonamide], the EC50 turned out to be 101 nM. Take `O=S(=O)(Nc1ccccc1-c1ccc2c(c1)OC[C@@H](Cc1cnc(-c3ccccc3)s1)[C@@H]2O)C(F)(F)F` (single isomer, unassigned) [Example 42, 1,1,1-Trifluoro-N-(2-((3S,4R or 3R,4S)-4-hydroxy-3-((2-phenylthiazol-5-yl)methyl)chroman-7-yl)phenyl)methanesulfonamide]: the concentration for a half-maximal effect (EC50) came to 445 nM.

`O=S(=O)(Nc1ccc(F)cc1-c1ccc2c(c1)OC[C@@H](Cc1ccccn1)[C@@H]2O)C(F)(F)F` (single isomer, unassigned) [Example 83, 1,1,1-Trifluoro-N-(4-fluoro-2-((3,4-trans)-4-hydroxy-3-(pyridin-2-ylmethyl)chroman-7-yl)phenyl)methanesulfonamide]: the concentration giving a half-maximal response (EC50) was 14 nM. The figure for `CC(c1csc(-c2ccccc2)n1)[C@@H]1COc2cc(-c3ccccc3NS(=O)(=O)C(F)(F)F)ccc2[C@H]1O` (single isomer, unassigned) [Example 97] is 268 nM; for `CS(=O)(=O)Nc1ccccc1-c1ccc2c(c1)OC[C@@H](Cc1ccccn1)[C@@H]2O` (single isomer, unassigned) [Example 73, N-{2-[(3R,4S or 3S,4R)-4-hydroxy-3-(pyridin-2-ylmethyl)-3,4-dihydro-2H-chromen-7-yl]phenyl}methanesulfonamide] it is 193 nM. Consider `O=S(=O)(Nc1ccccc1-c1ccc2c(c1)OC[C@@H](Cc1cscn1)[C@H]2O)C(F)(F)F` (racemic) [Example 31, 1,1,1-trifluoro-N-(2-(3,4-rac-cis)-4-hydroxy-3-(thiazol-4-ylmethyl)chroman-7-yl)phenyl)methanesulfonamide], for which the EC50 turned out to be 1370 nM.

`O=S(=O)(Nc1ccccc1-c1ccc2c(c1)OCC(Cc1cccs1)C2O)C(F)(F)F` (racemic) [Example 33, 1,1,1-Trifluoro-N-(2-((3,4-rac-trans)-4-hydroxy-3-(thiophen-2-ylmethyl)chroman-7-yl)phenyl)methanesulfonamide]: the EC50 stood at 53 nM. The figure for `Cn1nccc1C[C@@H]1COc2cc(-c3ccccc3NS(=O)(=O)C(F)(F)F)ccc2[C@H]1O` (single isomer, unassigned) [Example 66, 1,1,1-trifluoro-N-(2-{(3,4-trans)-4-hydroxy-3-[(1-methyl-1H-pyrazol-5-yl)methyl]-3,4-di-hydro-2H-chromen-7-yl}-phenyl)methanesulfonamide] is 210 nM; for `O=S(=O)(Nc1ccccc1-c1ccc2c(c1)OC[C@@H](Cc1ccccn1)[C@@H]2O)C(F)F` (single isomer, unassigned) [Example 82, 1,1-Difluoro-N-(2-((3S,4R or 3R,4S)-4-hydroxy-3-(pyridin-2-ylmethyl)chroman-7-yl)phenyl)methanesulfonamide] it is 119 nM. Regarding `Cn1nc(-c2ccccc2)cc1C[C@H]1COc2cc(-c3ccccc3NS(=O)(=O)C(F)(F)F)ccc2[C@@H]1O` (single isomer, unassigned) [Example 36, 1,1,1-Trifluoro-N-(2-((3S,4R or 3R,4S)-4-hydroxy-3-((1-methyl-3-phenyl-1H-pyrazol-5-yl)methyl)chroman-7-yl)phenyl)methanesulfonamide], the EC50 was determined as 737 nM. Consider `O=S(=O)(Nc1nnc(Cl)cc1-c1ccc2c(c1)OC[C@H](Cc1ccccn1)[C@H]2O)C(F)(F)F` (single isomer, unassigned) [Example 89, N-(6-chloro-4-((3R,4S or 3S,4R)-4-hydroxy-3-(pyridin-2-ylmethyl)chroman-7-yl)pyridazin-3-yl)-1,1,1-trifluoromethanesulfonamide], for which the EC50 was found to be 965 nM. The figure for `O=S(=O)(Nc1ccccc1-c1ccc2c(c1)OC[C@@H](Cc1ccc(-c3ccccc3)cc1)[C@@H]2O)C(F)(F)F` (racemic) [Example 4, N-(2-((3,4-Rac-trans)-3-([1,1′-biphenyl]-4-ylmethyl)-4-hydroxychroman-7-yl)phenyl)-1,1,1-trifluoromethanesulfonamide] is 6 nM.
